Here are results for 6 compounds from patent US20250339426A1, “GCN2 MODULATOR FOR TREATING CANCER” (HIBERCELL, INC., priority 2022, published 2025).

What is called TGI is the reduction of tumour growth relative to the control group.

Assay [1] concerns DLD-1 (human colorectal cancer cells). Nature of the assay: In vivo tumor growth inhibition, DLD-1 xenograft. To be noted: 5-fluorouracil 75 mg/kg once a week intravenous. Also on record: species or system BALB/c nude mice. Here is the method:
DLD-1 (human colorectal cancer cells): Female 6-8 weeks old BALB/c nude mice were inoculated subcutaneously on the right flank with DLD-1 tumor cells (5×10^6) in 0.1 ml of RPMI1640 medium without serum for tumor development. The treatments were started when the mean tumor size reached approximately 195 mm^3 at Day 7 post inoculation and continued until end of study by twice daily oral gavage dosing of HC-7366 at listed doses (vehicle, 0.3 mg/kg HC-7366, 1 mg/kg HC-7366, 3 mg/kg HC-7366, 10 mg/kg HC-7366, or 30 mg/kg HC-7366, FIG. 10). For the time course study, tumors were harvested at Days 4, 7 and 14. Tumors were then used for IHC and RNAseq experiments (see Example 21).
(§1) [formula] • 2.2.2 Tumor Measurements: The measurement of tumor size was conducted three times weekly with a caliper and recorded. The tumor volume (mm^3) was estimated using the formula: TV=a×b^2/2, where “a” and “b” is long and short diameters of a tumor, respectively. Tumor volume was calculated using the formula [tumor volume (mm^3)=π/6×length×width^2).
(§2) Regression was calculated using the formula=100×ΔT/T initial, if ΔT<0. Animals with 0 mm^3 tumor volume (no measurable tumor) for three consecutive measurements were considered as complete responders and animals with 50% tumor regressions were partial responders.
The effect of DC101 in combination with HC-7366 in DLD-1 tumor-bearing mice was evaluated using protocols analogous to those described in Example 6. Mice were treated with 3 or 30 mg/kg HC-7366, twice daily by oral gavage. DC101 was administered at 20 mg/kg twice weekly and with twice daily dosing via intraperitoneal injection.
The effect of 5-fluorouracil in combination with HC-7366 in DLD-1 tumor-bearing mice was evaluated using protocols analogous to those described in Example 6. Mice were treated with 3 or 30 mg/kg HC-7366, twice daily by oral gavage. 5-fluorouracil was administered at 75 mg/kg once a week, twice daily via intravenous injection.

Assay [2] concerns MFE280 (human endometrial cancer cells). Nature of the assay: In vivo tumor growth inhibition, MFE280 xenograft. More on the design: species or system Athymic Nude-Foxn1nu mice. The conditions noted are these: PT2977 1 mg/kg twice daily oral.
Assay [3] relates to 786-O (human renal cell carcinoma cancer cells). Nature of the assay: In vivo tumor growth inhibition, 786-O xenograft. Also on record: species or system BALB/c nude mice. To be noted: PT-2977 single agent, 0.1 mg/kg twice a day oral. Here is the method:
786-O (human renal cell carcinoma cancer cells): Female 6-8 weeks old BALB/c nude mice were inoculated subcutaneously on the right flank with 786-O tumor cells (5×10^6) in 0.1 ml of RPMI1640 medium without serum for tumor development. […] For the DC101 combination study, DC101 (murine monoclonal anti-VEGFR2 antibody) was dosed at 15 mg/kg twice a week by intraperitoneal injection.
as §1, §2
Female 6-8 weeks old BALB/c nude mice were inoculated subcutaneously on the right flank with 786-O tumor cells (5×10^6) in 0.1 ml of RPMI1640 medium without serum for tumor development (see Example 6). […]

The test system of assay [4] is NCI-H1975 (human non-small cell lung cancer cells). Nature of the assay: In vivo tumor growth inhibition, NCI-H1975 xenograft. Also on record: species or system Athymic Nude-Foxn1nu mice. The procedure: NCI-H1975 (human non-small cell lung cancer cells): Female 7-8 weeks old Athymic Nude-Foxn1nu mice were inoculated subcutaneously on the right flank with NCI-H1975 tumor cells (2.5×10^6) in 0.1 ml of RPMI1640 medium without serum for tumor development. Single agent HC-7366 was dosed at 3 mg/kg, osimertinib at 2.5 mg/kg and dacomitinib at 15 mg/kg. HC-7366 was combined with either osimertinib or dacomitinib. The vehicle for the groups was 0.5% methyl cellulose. The treatments were started when the mean tumor size reached approximately 205 mm^3 at Day 22 post inoculation and continued until end of study. HC-7366 was given twice daily by oral gavage whereas osimertinib or dacomitinib were administered once a day by oral gavage (FIGS. 131 and 133).
as §1, §2

Assay [5] deals with GCN2 pathway (p-GCN2, ATF4) in HT1080 cells. Briefly: Western blot analysis of HT1080 cell lysates. In kind it is cell-based, human. The conditions noted are these: 100 nM Halofuginone. The procedure: The HT1080 cells were harvested and counted and diluted to the desired density. 2 mL of cell suspension was added into each well of 6-well cell culture plate. The plates were transferred into 37° C., 5% CO2 incubator overnight. The cells were treated as described above. The media was aspirated, and cells were washed with ice cold phosphate buffered saline (PBS). Ice cold 1× radioimmunoprecipitation assay (RIPA) lysis buffer supplemented with protease and phosphatase inhibitors was added to the cell pellets, on ice. After 30 min on ice the cell lysates were centrifuged at 4° C., 12,000 rpm for 15 minutes and the supernatant collected. Protein concentration was determined using BCA kit. The cell lysates were mixed with 5× sodium dodecyl sulfate (SDS) loading buffer and denatured at 95° C. for 5 minutes. […] After the electrophoresis was completed, the separated protein was transferred to a nitrocellulose membrane using transblot system for 90 min, 300 mA, then the membrane was blocked with (tris-buffered saline) TBS buffer (5% bovine serum albumin (BSA)) for 1 hr at room temperature. The membrane was exposed to the primary antibodies overnight in cold room in TBS buffer (1% BSA). The membrane was then washed with TBS-Tween for 3×10 min at R/T, incubated with secondary antibodies in TBS buffer (1% BSA) for 1 hr at RT. The membrane was washed with TBS-Tween for 3×10 min at R/T and the imaging was acquired with Li—COR imaging system.
(In general: In western blotting, separated proteins are transferred to a membrane and probed.)

For assay [6], the system named is MV4-11 (human AML cancer cells). Briefly: In vivo tumor growth inhibition, MV4-11 xenograft. To be noted: venetoclax monotherapy, 50 mg/kg once daily. Also on record: species or system BALB/c nude mice. The procedure:
MV4-11 (human AML cancer cells): Female 6-8 weeks old BALB/c nude mice were inoculated subcutaneously on the right flank with MV4-11 tumor cells (1×10^7) in RPMI 1640 without serum for tumor development. The treatments were started when the mean tumor size reached approximately 150 mm^3 at Day 13 after cell inoculation and continued until end of study by twice daily oral gavage dosing of HC-7366 at listed doses (vehicle, 0.3 mg/kg HC-7366, 1 mg/kg HC-7366, 3 mg/kg HC-7366, 10 mg/kg HC-7366, or 30 mg/kg HC-7366, FIG. 20). For venetoclax combination study, venetoclax was dissolved in 0.5% carboxymethylcellulose (CMC) and co-administered at 50 mg/kg dose once daily (see Example 8).
as §1, §2
MV4-11 tumors were collected at the end of the venetoclax combination study described in Example 6. Tumor growth curves are provided of MV4-11 tumors treated with single agent HC-7366 and venetoclax or combination (FIG. 43).

For `O=c1[nH]cc(F)c(=O)[nH]1` [5-fluorouracil, reference compound], the TGI % in assay [1] was about 68%. In turn, `CS(=O)(=O)c1ccc(Oc2cc(F)cc(C#N)c2)c2c1[C@H](O)[C@H](F)[C@@H]2F` [PT-2977, belzutifan, reference compound] had a tumor growth inhibition in assay [2] of 53%. Further, the TGI % in assay [3] is given as about 70%. As to `COc1cc2ncnc(Nc3ccc(F)c(Cl)c3)c2cc1NC(=O)/C=C/CN1CCCCC1` [dacomitinib], in assay [4] (dacomitinib alone 15 mg/kg once a day, end of the study, without statistical significance), the TGI % is given as 36%.

As to `O=C(CC1NCCCC1O)Cn1cnc2cc(Br)c(Cl)cc2c1=O` (centres unmarked) [halofuginone, reference compound], the “GCN2 and ATF4 in cells treated with halofuginone” value in assay [5] was “activation of GCN2 and ATF4”. As to `C=CC(=O)Nc1cc(Nc2nccc(-c3cn(C)c4ccccc34)n2)c(OC)cc1N(C)CCN(C)C` [osimertinib], the “partial response (animals/group)” value in assay [4] (50% tumor regressions, doses as in study) was 1/10. Moreover, the TGI in assay [4] (osimertinib 2.5 mg/kg once a day oral) is recorded as 95%. In the case of `CC1(C)CCC(CN2CCN(c3ccc(C(=O)NS(=O)(=O)c4ccc(NCC5CCOCC5)c([N+](=O)[O-])c4)c(Oc4cnc5[nH]ccc5c4)c3)CC2)=C(c2ccc(Cl)cc2)C1` [venetoclax, reference compound], the TGI in assay [6] is 62%.
